Data from patent US20250324972A1, “METHOD OF CONTROLLING NEMATODES” (priority 2022, published 2025).

Tests used:
[1] = system: Tomatoes of Aryman variety; assay: Open field trial on tomato: phytotoxicity evaluation; assay type: in vivo
Method: An open field trial was conducted. Tomatoes of Aryman variety was used. The soil type was sandy loam.
Fertilizers were applied prior to bed formation. Plots were formed, with a total area of 25 m^2 per plot. Drip lines were laid in the plot beds (plot beds occupy half the field). Treatments were arranged in a randomized complete block design with two replications.
Fluensulfone emulsifiable concentrate (Nimitz® 480 EC) was used for the fluensulfone treatments. Additionally, comparative nematicides fluopyram (as Fluopyram® 500 SC) and carbofuran (as Carbofuran® 3% CG), were tested. Untreated control plots were formed for comparison.
In Table 1, time of application is expressed by DAT, which indicates the number of days relative to the date of planting.
Treatments 2 and 3 (of the invention): fluensulfone in the form of an emulsifiable concentrate (Nimitz® 480 EC) was applied at the day of planting (DAT=0), followed by a post-plant application twenty five days later (DAT=25). The application method consisted of the following steps. First, the soil was wetted by irrigation water. Then, at the day of planting, appropriate amounts of Nimitz® 480 EC were diluted in water and applied to achieve the application rates tabulated in Table 1. It was repeated on DAT=25. […]
Phytotoxicity was evaluated on DAT=7, 21, 32, and 46. […]

[2] = system: root-knot nematode; assay: Open field trial on tomato: root galling assessed with the root galling index (Bridge and Page chart); assay type: in vivo
From the text: The rating method is based on assigning an integer number in the interval from 0 (no knots on the roots) to 10 (all roots severely knotted indicative of plant death).
Treatments 2 and 3 (of the invention): fluensulfone in the form of an emulsifiable concentrate (Nimitz® 480 EC) was applied at the day of planting (DAT=0), followed by a post-plant application twenty five days later (DAT=25). The application method consisted of the following steps. First, the soil was wetted by irrigation water. Then, at the day of planting, appropriate amounts of Nimitz® 480 EC were diluted in water and applied to achieve the application rates tabulated in Table 1. […]
Root galling was assessed in the open-field trial, on DAT=25, 50, and 75, using the root galling index. […]

SMILES	Phytotoxicity ([1]; entire range of application rates tested, evaluated on DAT=7, 21, 32, and 46)	average root galling indexes (RGI) ([2]; application initiated on the day of planting/transplanting, even seventy days after planting/transplanting)	root galling index ([2]; method of the invention, at least over 50 days and even 75 days after planting)	Phytotoxicity score ([1]; evaluated on DAT=7, 21, 32, and 46, fluopyram 500 SC 0 DAT @ 1250 ml/ha)
O=S(=O)(CCC(F)=C(F)F)c1ncc(Cl)s1 [fluensulfone, 5-chloro-2-(3,4,4-trifluoro-but-3-ene-1-sulfonyl)-1,3-thiazole]	No phytotoxicity was observed	below 3	below 2	
O=C(NCCc1ncc(C(F)(F)F)cc1Cl)c1ccccc1C(F)(F)F [fluopyram]				65
